Data on 37 compounds can be found in US20050197350A1, “Novel quinoline, tetrahydroquinazoline, and pyrimidine derivatives and methods of treatment related to the use thereof” (TAISHO PHARMACEUTICAL CO., LTD., priority 2003, published 2005).

In one assay the test system is MCH receptors. Description: MCH receptor activity class (method not given).
Conditions: not given
As for `Cc1cc(N(C)C)nc(N[C@H]2CC[C@@H](C(=O)NCc3ccc(Br)cc3F)CC2)n1` [Example 2585, cis-N-(4-bromo-2-fluorobenzyl)-4-{[4-(dimethylamino)-6-methylpyrimidin-2-yl]amino}cyclohexanecarboxamide], the class came out at 1.

The assay is the same for the next values; noted with them: MCH receptor activity class 1-3 (percent of control at 10^-7 M or IC50).
`CN(C)c1ccnc(N[C@H]2CC[C@@H](CNC(=O)Nc3cc(F)cc(F)c3)CC2)n1` [compound 2449]: the class is 1 (Class 1: The value of percent of control at 10^−7 M was less than 40% or the value of IC50 was less than 50 nM.).
As for `COc1cc(OC)c(NC(=S)N[C@H]2CC[C@@H](Nc3cc(N(C)C)c4ccccc4n3)CC2)cc1Cl` [compound 2297, N-(5-chloro-2,4-dimethoxyphenyl)-N′-(cis-4-{[4-(dimethylamino)quinolin-2-yl]amino}cyclohexyl)thiourea], the class is on record as 1 (Class 1: The value of percent of control at 10^−7 M was less than 40% or the value of IC50 was less than 50 nM.).
Still for that read-out and setting: the figure for `Cc1cc(F)ccc1NC(=S)N[C@H]1CC[C@@H](Nc2nccc(N(C)C)n2)CC1` [compound 2340] is 3 (Class 3 The value of percent of control at 10^−7 M was more than 60% or the value of IC50 was more than 200 nM.).

Staying with this assay, now noted: MCH receptor; class by percent of control at 10^-7 M or IC50.
Take `CN(C)c1cc(N[C@H]2CC[C@@H](NC(=O)c3ccc(Br)cc3)CC2)nc2ccccc12` [compound 22]: the class was 2 (Class 2: The value of percent of control at 10^−7 M was from 40% to 60% or the value of IC′50 was from 50 nM to 200 nM.).
With `CN(C)c1nc(N[C@H]2CC[C@@H](NC(=S)NCCN3CCCCC3)CC2)nc2c1CCCC2` [compound 2081], the class is 3 (Class 3 The value of percent of control at 10^−7 M was more than 60% or the value of IC50 was more than 200 nM.).
On the same count and under the same terms, the value for `CN(C)c1nc(N[C@H]2CC[C@@H](NC(=S)Nc3ccc(-n4cccn4)cc3)CC2)nc2c1CCCC2` [compound 2082] was 3 (Class 3 The value of percent of control at 10^−7 M was more than 60% or the value of IC50 was more than 200 nM.).
Still for that read-out and setting: the figure for `CN(C)c1nc(N[C@H]2CC[C@@H](NC(=S)NCCc3ccc(Cl)cc3)CC2)nc2c1CCCC2` [compound 1998] is 3 (Class 3 The value of percent of control at 10^−7 M was more than 60% or the value of IC50 was more than 200 nM.); for `COc1ccc(CNC(=S)N[C@H]2CC[C@@H](Nc3nc4c(c(N(C)C)n3)CCCC4)CC2)cc1OC` [compound 2041] it is 3 (Class 3 The value of percent of control at 10^−7 M was more than 60% or the value of IC50 was more than 200 nM.).

Staying with this assay, now noted: activity class 1-3: percent of control at 10^-7 M or IC50.
Take `CCOc1cccc(CN[C@H]2CC[C@@H](Nc3nccc(N(C)C)n3)CC2)c1` [compound 1520]: the class is recorded as 3 (Class 3 The value of percent of control at 10^−7 M was more than 60% or the value of IC50 was more than 200 nM.).

Staying with this assay, now noted: activity class per percent of control at 10^-7 M or IC50.
On to `CN(C)c1nc(N[C@H]2CC[C@@H](NC(=O)c3cc(Cl)cc(Cl)c3NC(=O)C#Cc3ccccc3)CC2)nc2c1CCCC2` [compound 994], for which the class is 1 (Class 1: The value of percent of control at 10^−7 M was less than 40% or the value of IC50 was less than 50 nM.).
Same read-out and setting: the figure for `CN(C)c1cc(N[C@H]2CC[C@@H](CNCc3cc(C(F)(F)F)ccc3F)CC2)nc2ccccc12` [compound 1153] is 3 (Class 3 The value of percent of control at 10^−7 M was more than 60% or the value of IC50 was more than 200 nM.); for `COc1ccc(OC)c(CNC[C@H]2CC[C@@H](Nc3cc(N(C)C)c4ccccc4n3)CC2)c1` [compound 1125] it is 3 (Class 3 The value of percent of control at 10^−7 M was more than 60% or the value of IC50 was more than 200 nM.); for `COc1ccc(CNC[C@H]2CC[C@@H](Nc3cc(N(C)C)c4ccccc4n3)CC2)cc1` [compound 1141] it is 3 (Class 3 The value of percent of control at 10^−7 M was more than 60% or the value of IC50 was more than 200 nM.).
Same read-out and setting: the value for `CN(C)c1cc(N[C@H]2CC[C@@H](CNCc3ccc(Cl)cc3)CC2)nc2ccccc12` [compound 1149] was 3 (Class 3 The value of percent of control at 10^−7 M was more than 60% or the value of IC50 was more than 200 nM.).

The same assay, now with this note: class 1-3 by percent of control at 10^-7 M or IC50.
As to `Cc1cccc(C(=O)NC[C@H]2CC[C@@H](Nc3nccc(N(C)C)n3)CC2)c1C` [compound 455], the class is reported as 3 (Class 3 The value of percent of control at 10^−7 M was more than 60% or the value of IC50 was more than 200 nM.).
Consider `CN(C)c1nc(N[C@H]2CC[C@@H](NC(=O)c3ccc(F)c(F)c3)CC2)nc2c1CCCC2` [compound 469], for which the class is 1 (Class 1: The value of percent of control at 10^−7 M was less than 40% or the value of IC50 was less than 50 nM.).
Still for that read-out and setting: the value for `CN(C)c1nc(N[C@H]2CC[C@@H](NC(=O)c3sc(Cl)c(Cl)c3Cl)CC2)nc2c1CCCC2` [compound 568] was 3 (Class 3 The value of percent of control at 10^−7 M was more than 60% or the value of IC50 was more than 200 nM.).

The assay is the same for the next values; noted with them: class by percent of control at 10^-7 M or IC50.
In the case of `CCNC(=O)N[C@H]1CC[C@@H](Nc2nc3c(c(N(C)C)n2)CCCC3)CC1` [compound 1825], the class is recorded as 3 (Class 3 The value of percent of control at 10^−7 M was more than 60% or the value of IC50 was more than 200 nM.).
Still for that read-out and setting: the figure for `CCOc1ccc(CNC[C@H]2CC[C@@H](Nc3nccc(N(C)C)n3)CC2)c(OCC)c1` [compound 1291] is 2 (Class 2: The value of percent of control at 10^−7 M was from 40% to 60% or the value of IC′50 was from 50 nM to 200 nM.).
Regarding `CCCN(CCC)C(=O)[C@H](CCC(=O)N[C@H]1CC[C@@H](Nc2cc(N(C)C)c3ccccc3n2)CC1)NC(=O)c1ccccc1` (relative stereo) [compound 730], the class is given as 3 (Class 3 The value of percent of control at 10^−7 M was more than 60% or the value of IC50 was more than 200 nM.).
On the same count and under the same terms, the figure for `CN(C)c1nc(N[C@H]2CC[C@@H](NC(=O)NCc3ccccc3F)CC2)nc2c1CCCC2` [compound 1713] is 2 (Class 2: The value of percent of control at 10^−7 M was from 40% to 60% or the value of IC′50 was from 50 nM to 200 nM.).
Regarding `CN(C)c1ccnc(N[C@H]2CC[C@@H](NC(=O)c3ccccc3COc3ccccc3)CC2)n1` [compound 899], the class is given as 3 (Class 3 The value of percent of control at 10^−7 M was more than 60% or the value of IC50 was more than 200 nM.).
As for `CN(C)c1nc(N[C@H]2CC[C@@H](NC(=O)Nc3ccc(F)c(Cl)c3)CC2)nc2c1CCCC2` [compound 1805], the class is 3 (Class 3 The value of percent of control at 10^−7 M was more than 60% or the value of IC50 was more than 200 nM.).
For `CCC(Oc1ccccc1)C(=O)NC[C@H]1CC[C@@H](Nc2nc3c(c(N(C)C)n2)CCCC3)CC1` (relative stereo) [compound 610], the class was 3 (Class 3 The value of percent of control at 10^−7 M was more than 60% or the value of IC50 was more than 200 nM.).
Still for that read-out and setting: the value for `COc1cc(C)c(CNC[C@H]2CC[C@@H](Nc3nccc(N(C)C)n3)CC2)cc1C` [compound 1316] was 2 (Class 2: The value of percent of control at 10^−7 M was from 40% to 60% or the value of IC′50 was from 50 nM to 200 nM.).
Turning to `Cc1c(NC(=O)N[C@H]2CC[C@@H](Nc3cc(N(C)C)c4ccccc4n3)CC2)cccc1[N+](=O)[O-]` [compound 2111], the class was 3 (Class 3 The value of percent of control at 10^−7 M was more than 60% or the value of IC50 was more than 200 nM.).
On the same count and under the same terms, the figure for `CN(C)c1ccnc(N[C@H]2CC[C@@H](CNCc3ccc(CO)o3)CC2)n1` [compound 1276] is 3 (Class 3 The value of percent of control at 10^−7 M was more than 60% or the value of IC50 was more than 200 nM.); for `CN(C)c1nc(N[C@H]2CC[C@@H](CNC(=O)Nc3ccc(F)c(F)c3)CC2)nc2c1CCCC2` [compound 2494] it is 3 (Class 3 The value of percent of control at 10^−7 M was more than 60% or the value of IC50 was more than 200 nM.); for `COc1cc(NC(=S)N[C@H]2CC[C@@H](Nc3cc(N(C)C)c4ccccc4n3)CC2)cc(OC)c1OC` [compound 2175, N-(cis-4-{[4-(dimethylamino)quinolin-2-yl]amino}cyclohexyl)-N′-(3,4,5-trimethoxyphenyl)thiourea] it is 1 (Class 1: The value of percent of control at 10^−7 M was less than 40% or the value of IC50 was less than 50 nM.).
For the compound `CN(C)c1nc(N[C@H]2CC[C@@H](CNC(=O)c3cncc(Br)c3)CC2)nc2c1CCCC2` [compound 650], the class is given as 3 (Class 3 The value of percent of control at 10^−7 M was more than 60% or the value of IC50 was more than 200 nM.).
Regarding `CN(C)c1cc(N[C@H]2CC[C@@H](CNCc3cn(C)c4ccccc34)CC2)nc2ccccc12` [compound 1179], the class is given as 3 (Class 3 The value of percent of control at 10^−7 M was more than 60% or the value of IC50 was more than 200 nM.).
On to `CN(C)c1nc(N[C@H]2CC[C@@H](CNC(=O)c3cccc(OC(F)(F)F)c3)CC2)nc2c1CCCC2` [compound 616], for which the class is listed as 3 (Class 3 The value of percent of control at 10^−7 M was more than 60% or the value of IC50 was more than 200 nM.).
The same measure, in the same setting: the value for `CN(C)c1nc(N[C@H]2CC[C@@H](CNC(=O)c3cc(C(C)(C)C)nn3Cc3ccccc3)CC2)nc2c1CCCC2` [compound 647] was 3 (Class 3 The value of percent of control at 10^−7 M was more than 60% or the value of IC50 was more than 200 nM.).

The assay is the same for the next values; noted with them: class by percent of control at 10^−7 M or IC50.
Consider `Cc1cc(N(C)C)nc(N[C@H]2CC[C@@H](NC(=O)c3cncc(Br)c3)CC2)n1` [compound 2978, 5-bromo-N-(cis-4-{[4-(dimethylamino)-6-methylpyrimidin-2-yl]amino}cyclohexyl)nicotinamide], for which the class is 1 (Class 1: The value of percent of control at 10^−7 M was less than 40% or the value of IC50 was less than 50 nM.).
Regarding `COc1ccc(N(C)CC(=O)N[C@H]2CC[C@@H](Nc3ncc(C)c(N(C)C)n3)CC2)cc1` [compound 2948], the class was 2 (Class 2: The value of percent of control at 10^−7 M was from 40% to 60% or the value of IC′50 was from 50 nM to 200 nM.).
Take `COc1ccc(C(=O)N[C@H]2CC[C@@H](Nc3nc(C)c(C)c(N(C)C)n3)CC2)c(OC)n1` [compound 2832, N-(cis-4-{[4-(dimethylamino)-5,6-dimethylpyrimidin-2-yl]amino}cyclohexyl)-2,6-dimethoxynicotinamide]: the class is 1 (Class 1: The value of percent of control at 10^−7 M was less than 40% or the value of IC50 was less than 50 nM.).
